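Assay format: 96-well plates, 48-hour exposure. Here, GI50 denotes the concentration required for 50% inhibition of growth.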 Active and inactive are the calls of the source. Cut-off read from the data, not from the text of the source: active = GI50 up to about 1.1 µM and inactive = higher.
Tests used:
Test in all cases: inhibition of tumour cell growth, NCI panel, 48 h
A498 = system: A498
COLO 205 = system: COLO 205
UO-31 = system: UO-31
K562 = system: K562
NCI-H460 = system: NCI-H460
SK-MEL-5 = system: SK-MEL-5
NCI-H226 = system: NCI-H226
RPMI-8226 = system: RPMI-8226
HOP-92 = system: HOP-92
SF-268 = system: SF-268
ACHN = system: ACHN
MOLT-4 = system: MOLT-4
HOP-62 = system: HOP-62
SNB-78 = system: SNB-78
HT-29 = system: HT-29
M14 = system: M14
SK-MEL-28 = system: SK-MEL-28
OVCAR-3 = system: OVCAR-3
786-0 = system: 786-0
UACC-62 = system: UACC-62
LXFL 529 = system: LXFL 529
SF-295 = system: SF-295
SN12C = system: SN12C
CAKI-1 = system: CAKI-1
NCI-H522 = system: NCI-H522
DLD-1 = system: DLD-1
HCT-15 = system: HCT-15
EKVX = system: EKVX
SW-620 = system: SW-620
DMS-273 = system: DMS-273
RXF 393 = system: RXF 393
HOP-18 = system: HOP-18
IGROV-1 = system: IGROV-1
M19-MEL = system: M19-MEL
SK-OV-3 = system: SK-OV-3
HL-60 = system: HL-60
U-251 = system: U-251
OVCAR-8 = system: OVCAR-8
OVCAR-5 = system: OVCAR-5
OVCAR-4 = system: OVCAR-4
NCI/ADR-RES = system: NCI/ADR-RES
KM12 = system: KM12
RXF 631 = system: RXF 631
HCC 2998 = system: HCC 2998
DMS-114 = system: DMS-114
MCF7 = system: MCF7
SNB-19 = system: SNB-19
KM-20L2 = system: KM-20L2
TK-10 = system: TK-10
SF-539 = system: SF-539
HCT-116 = system: HCT-116
CCRF-CEM = system: CCRF-CEM
Malme-3M = system: Malme-3M
LOX IMVI = system: LOX IMVI
NCI-H23 = system: NCI-H23
A549 = system: A549
UACC-257 = system: UACC-257
SNB-75 = system: SNB-75
SK-MEL-2 = system: SK-MEL-2
XF498 = system: XF498
SR = system: SR

SMILES: CCOC(=O)COc1ccccc1/C=C1\CCC(CN(C)C)C1=O (stereo not drawn)
- GI50 (A498): 17.2 µM (inactive)
- GI50 (COLO 205): 3.9 µM (inactive)
- GI50 (UO-31): 16.3 µM (inactive)
- GI50 (K562): 1.49 µM (inactive)
- GI50 (NCI-H460): 10.8 µM (inactive)
- GI50 (SK-MEL-5): 10.4 µM (inactive)
- GI50 (NCI-H226): 17.5 µM (inactive)
- GI50 (RPMI-8226): 0.902 µM (active)
- GI50 (HOP-92): 10.9 µM (inactive)
- GI50 (SF-268): 5.45 µM (inactive)
- GI50 (ACHN): 13.9 µM (inactive)
- GI50 (MOLT-4): 2.11 µM (inactive)
- GI50 (HOP-62): 20.6 µM (inactive)
- GI50 (SNB-78): 21.2 µM (inactive)
- GI50 (HT-29): 5.86 µM (inactive)
- GI50 (M14): 8.71 µM (inactive)
- GI50 (SK-MEL-28): 2.62 µM (inactive)
- GI50 (OVCAR-3): 7.82 µM (inactive)
- GI50 (786-0): 2.94 µM (inactive)
- GI50 (UACC-62): 6.05 µM (inactive)
- GI50 (LXFL 529): 2.45 µM (inactive)
- GI50 (SF-295): 16.1 µM (inactive)
- GI50 (SN12C): 5.96 µM (inactive)
- GI50 (CAKI-1): 3.02 µM (inactive)
- GI50 (NCI-H522): 2.72 µM (inactive)
- GI50 (DLD-1): 3.99 µM (inactive)
- GI50 (HCT-15): 3.24 µM
- GI50 (EKVX): 13.8 µM (inactive)
- GI50 (SW-620): 2.55 µM (inactive)
- GI50 (DMS-273): 2.91 µM (inactive)
- GI50 (RXF 393): 2.93 µM (inactive)
- GI50 (HOP-18): 23.2 µM (inactive)
- GI50 (IGROV-1): 13.3 µM (inactive)
- GI50 (M19-MEL): 3.18 µM (inactive)
- GI50 (SK-OV-3): 17.5 µM (inactive)
- GI50 (HL-60): 0.607 µM (active)
- GI50 (U-251): 8 µM (inactive)
- GI50 (OVCAR-8): 4.2 µM (inactive)
- GI50 (OVCAR-5): 17.9 µM (inactive)
- GI50 (OVCAR-4): 16.5 µM (inactive)
- GI50 (NCI/ADR-RES): 3.48 µM (inactive)
- GI50 (KM12): 3.71 µM (inactive)
- GI50 (RXF 631): 17.9 µM (inactive)
- GI50 (HCC 2998): 2.46 µM (inactive)
- GI50 (DMS-114): 10.3 µM (inactive)
- GI50 (MCF7): 2.57 µM (inactive)
- GI50 (SNB-19): 9.2 µM (inactive)
- GI50 (KM-20L2): 11.6 µM (inactive)
- GI50 (TK-10): 12.9 µM (inactive)
- GI50 (SF-539): 11.9 µM (inactive)
- GI50 (HCT-116): 3.4 µM (inactive)
- GI50 (CCRF-CEM): 1.1 µM (active)
- GI50 (Malme-3M): 5.19 µM (inactive)
- GI50 (LOX IMVI): 2.22 µM (inactive)
- GI50 (NCI-H23): 8.41 µM (inactive)
- GI50 (A549): 21.5 µM (inactive)
- GI50 (UACC-257): 5.66 µM (inactive)
- GI50 (SNB-75): 15.9 µM (inactive)
- GI50 (SK-MEL-2): 10.6 µM (inactive)

SMILES: O=C(NN1C(=O)CSC1c1ccc(Cl)c(Cl)c1)c1ccncc1 (stereo not drawn)
- GI50 (A498): 29.9 µM (inactive)
- GI50 (COLO 205): > 100 µM (inactive)
- GI50 (UO-31): 85.1 µM (inactive)
- GI50 (K562): 37.8 µM (inactive)
- GI50 (SK-MEL-5): 46.9 µM (inactive)
- GI50 (RPMI-8226): 42.9 µM (inactive)
- GI50 (SF-268): 78.3 µM (inactive)
- GI50 (ACHN): 38.4 µM (inactive)
- GI50 (MOLT-4): 67.8 µM (inactive)
- GI50 (SNB-78): 64.6 µM (inactive)
- GI50 (HT-29): 60.1 µM (inactive)
- GI50 (M14): 44.5 µM (inactive)
- GI50 (SK-MEL-28): > 100 µM (inactive)
- GI50 (UACC-62): 31.8 µM (inactive)
- GI50 (LXFL 529): 71.6 µM (inactive)
- GI50 (SF-295): 54.3 µM (inactive)
- GI50 (SN12C): 75.9 µM (inactive)
- GI50 (CAKI-1): > 100 µM (inactive)
- GI50 (NCI-H522): 72.8 µM (inactive)
- GI50 (DLD-1): 38.6 µM (inactive)
- GI50 (HCT-15): 72.6 µM
- GI50 (EKVX): > 100 µM (inactive)
- GI50 (SW-620): > 100 µM (inactive)
- GI50 (DMS-273): 64.3 µM (inactive)
- GI50 (RXF 393): 58.3 µM (inactive)
- GI50 (HOP-18): < 0.01 µM (active)
- GI50 (IGROV-1): 34.4 µM (inactive)
- GI50 (SK-OV-3): > 100 µM (inactive)
- GI50 (HL-60): 37.8 µM (inactive)
- GI50 (U-251): > 100 µM (inactive)
- GI50 (OVCAR-8): 86.7 µM (inactive)
- GI50 (OVCAR-5): > 100 µM (inactive)
- GI50 (OVCAR-4): 54.1 µM (inactive)
- GI50 (KM12): 38.1 µM (inactive)
- GI50 (RXF 631): 94.4 µM (inactive)
- GI50 (HCC 2998): 46.2 µM (inactive)
- GI50 (DMS-114): 30.6 µM (inactive)
- GI50 (SNB-19): > 100 µM (inactive)
- GI50 (KM-20L2): 74.6 µM (inactive)
- GI50 (TK-10): 57.7 µM (inactive)
- GI50 (SF-539): > 100 µM (inactive)
- GI50 (CCRF-CEM): 77.3 µM (inactive)
- GI50 (Malme-3M): 87.7 µM (inactive)
- GI50 (LOX IMVI): 66.4 µM (inactive)
- GI50 (NCI-H23): 84.7 µM (inactive)
- GI50 (XF498): 48 µM (inactive)
- GI50 (A549): 58.1 µM (inactive)
- GI50 (UACC-257): 54.2 µM (inactive)
- GI50 (SNB-75): > 100 µM (inactive)
- GI50 (SK-MEL-2): 83.8 µM (inactive)

SMILES: COc1ccc2cccc(C(=O)c3ccc(C)c4c3CCC4)c2c1
- GI50 (A498): 34.1 µM (inactive)
- GI50 (COLO 205): 29 µM (inactive)
- GI50 (UO-31): 30.2 µM (inactive)
- GI50 (K562): 30.8 µM (inactive)
- GI50 (NCI-H460): 20.3 µM (inactive)
- GI50 (SK-MEL-5): 19.5 µM (inactive)
- GI50 (NCI-H226): 52.4 µM (inactive)
- GI50 (SR): 23.6 µM (inactive)
- GI50 (SF-268): > 100 µM (inactive)
- GI50 (ACHN): 56 µM (inactive)
- GI50 (MOLT-4): 27.6 µM (inactive)
- GI50 (HOP-62): 24.9 µM (inactive)
- GI50 (HT-29): 33 µM (inactive)
- GI50 (M14): 21.4 µM (inactive)
- GI50 (SK-MEL-28): > 100 µM (inactive)
- GI50 (OVCAR-3): 35.2 µM (inactive)
- GI50 (786-0): 24.8 µM (inactive)
- GI50 (UACC-62): 25.4 µM (inactive)
- GI50 (LXFL 529): 29.6 µM (inactive)
- GI50 (SF-295): 53.6 µM (inactive)
- GI50 (SN12C): 71.9 µM (inactive)
- GI50 (CAKI-1): 31.7 µM (inactive)
- GI50 (NCI-H522): 22.5 µM (inactive)
- GI50 (DLD-1): 21.5 µM (inactive)
- GI50 (HCT-15): 19 µM
- GI50 (EKVX): 51.2 µM (inactive)
- GI50 (SW-620): 41.8 µM (inactive)
- GI50 (DMS-273): 29.1 µM (inactive)
- GI50 (RXF 393): 41.4 µM (inactive)
- GI50 (HOP-18): 33.3 µM (inactive)
- GI50 (IGROV-1): 24.6 µM (inactive)
- GI50 (M19-MEL): 37.8 µM (inactive)
- GI50 (SK-OV-3): 64.3 µM (inactive)
- GI50 (HL-60): 14.6 µM (inactive)
- GI50 (U-251): 53.7 µM (inactive)
- GI50 (OVCAR-8): 43.2 µM (inactive)
- GI50 (OVCAR-5): 34.3 µM (inactive)
- GI50 (OVCAR-4): 85.5 µM (inactive)
- GI50 (KM12): 26.1 µM (inactive)
- GI50 (RXF 631): 23 µM (inactive)
- GI50 (HCC 2998): 19.6 µM (inactive)
- GI50 (DMS-114): 32.4 µM (inactive)
- GI50 (SNB-19): > 100 µM (inactive)
- GI50 (KM-20L2): 35.9 µM (inactive)
- GI50 (TK-10): 32.3 µM (inactive)
- GI50 (HCT-116): 37.7 µM (inactive)
- GI50 (CCRF-CEM): 26.2 µM (inactive)
- GI50 (Malme-3M): 29.2 µM (inactive)
- GI50 (LOX IMVI): 19.5 µM (inactive)
- GI50 (NCI-H23): 34.1 µM (inactive)
- GI50 (A549): 49.9 µM (inactive)
- GI50 (UACC-257): 30.1 µM (inactive)
- GI50 (SNB-75): > 100 µM (inactive)
- GI50 (SK-MEL-2): 34.6 µM (inactive)

From ChEMBL document CHEMBL1201862, “PubChem BioAssay data set” (2004)
